Test results from patent US20240018121A1, “NOVEL HETEROAROMATIC COMPOUNDS EXHIBITING ANTIFUNGAL ACTIVITY AND THEIR METHOD OF USE” (FOX CHASE CHEMCIAL DIVERSITY CENTER, INC., priority 2020, published 2024).
In brackets after ≈: the same amount, converted by molar mass. Where a name gives a salt, the structure may show the parent alone. Read-outs that look alike come from different tables or passages of the source.

Tests used:
Assay type in all cases: cell-based
[1] = test system: Mucor circinelloides 1463(62) (ATCC 26759); test: Fungal MIC Protocol, Mucor circinelloides (MIC-50); settings: Mucor circinelloides, read-out: MIC-50 Mucorales circinelloides 26579
Procedure: (§1) Fungal MIC Protocol: RPMI/MOPS media (Roswell Park Memorial Institute/3-morpholinopropane-1-sulfonic acid media) is prepared by dissolving 8.4 grams RPMI […] (Sigma cat #R1383), 34.52 grams MOPS buffer (Sigma cat #M3.183) and 2 […] glucose in 900 mL deionized water. The pH is adjusted to 7.0 with NaOH and filter sterilized. 0.1 mL, of a stock spore suspension (or loop from frozen stock) is inoculated to a 75 mL tissue culture flask (Falcon cat #353136) containing 50 mL of Potato Dextrose Agar (PDA, 24 grams PD broth (Fisher cat #DF 0549179), 20 grams agar (Fisher cat #BP 1423500) per liter water). Aspergillus and Fusarium strains are grown at 35° C. and Mucor strains are grown at room temperature for 3-5 days. Spores are harvested by flooding the flask with 5 mL phosphate buffered saline (PBS) pH 7.4+0.1% Tween-20 and several glass beads (Fisher cat #S800243) are added to aid in agitation. The supernatant is removed and the OD530 of a 1:100 dilution is measured. Spores are diluted in RPMI/MOPS to a final OD530 of 0.002 for Aspergillus and an OD530 of 0.005 for Fusarium and Mucor. The final concentration of spores is approximately 2×10^4 cfu/mL. Test compound(s) are diluted to 200 ug/mL in RPMI/MOPS ([…]). Ten (10) serial dilutions are prepared with RPMI/MOPS in a 96-well round bottom plate (Fisher cat #353136). For Mucor strains a sterile flat-bottom 96-well plate is used. 50 μl of compound dilutions in duplicate are added to a sterile 96-well round bottom plate. 50 ul of diluted spores are added to the compound-containing plates. Control wells include 1) compound but no cells and 2) spores but no compound. Mix the plates gently by hand, place in ziplock bags and
(§2) incubate at 35° C. for 48 hours. Score the MIC visually (lowest concentration of compound showing >50% growth inhibition) using an inverted mirror.

[2] = test system: Mucor ramosissimus 057718 (ATCC 90286); test: Fungal MIC Protocol, Mucor ramosissimus (MIC-50); settings: Mucor ramosissimus, read-out: MIC-50 Mucorales ramosissimus 90286
Procedure: as §1, §2

Candida albicans GDH2346 = test: Candida Minimal Inhibitory Concentration (MIC); settings: Candida albicans, read-out: MIC-50 Candida albicans GDH2346
Procedure: Candida Minimal Inhibitory Concentration (MIC): RPMI/MOPS media is prepared by dissolving 8.4 g RPMI 1640, 34.52 g MOPS buffer and 2 g glucose in 900 mL water. The pH is adjusted to 7.0 with NaOH. The total volume is brought to 1 L and the resulting solution is filter sterilized. The Candida stock is streaked on a Yeast extract Peptone Dextrose (YPD) agar plate and grown at 35° C. for isolation of single colonies. Compounds of the disclosure are diluted to 200 μg/mL in RPMI/MOPS (4.8 ul of 10 mg/mL DMSO stock in 240 ul media). Ten (10) 1:2 serial dilutions are prepared in RPMI/MOPS in a 96-well round bottom plate. Fifty (50) μl of compound dilutions are transferred in duplicate to a sterile tissue culture-treated 96-well flat-bottom, black-sided polypropylene plate. A single colony of Candida from the YPD plate is re-suspended in 5 mL phosphate buffered saline (BS) and optical density (OD) at 600 nm is measured. The suspension is adjusted to OD=1.0 and a 1:1000 dilution is prepared in RPMI/MOPS. Fifty (50) ul aliquots of the diluted yeast are added to the plates containing 50 μL of compound to all wells except 12E-H. Control wells include: 12 A-D cells, no compound and 12 E-H no cells, no compound. The plates are mixed gently by hand and placed in Ziplok bags in a 35° C. incubator. The OD600 is measured at 24 and 48 hours.

[3] = test system: Fusarium falciforme FS1 (ATCC MYA-3636); test: Fungal MIC Protocol, Fusarium falciforme; settings: Fusarium falciforme, read-out: MIC Fusarium falciforme 3636
Procedure: as §1
(§3) incubate at 35° C. for 48 hours. […]

[4] = test system: Aspergillus flavus AFL1 (ATCC MYA-3631); test: Fungal MIC Protocol, Aspergillus flavus; settings: Aspergillus flavus, read-out: MIC Aspergillus flavus 3631
Procedure: as §1, §3

[5] = test system: Aspergillus fumigatus T33439 (ATCC MYA-3626); test: Fungal MIC Protocol, Aspergillus fumigatus; settings: Aspergillus fumigatus, read-out: MIC Aspergillus fumigatus 3626
Procedure: as §1, §3

[6] = test system: Fusarium solani (ATCC 58877); test: Fungal MIC Protocol, Fusarium solani; settings: Fusarium solani, read-out: MIC Fusarium solani 58877
Procedure: as §1, §3

[7] = ATCC26759, 50% growth inhibition at 48 hours
[8] = ATCC90286, 50% growth inhibition at 48 hours
[9] = GDH2346, 50% growth inhibition at 48 hours
[10] = 100% growth inhibition at 48 hours
[11] = ATCC58877, 100% growth inhibition at 48 hours

Structure (SMILES) | MIC50 [1, 7] [µg/mL] | MIC50 [2, 8] [µg/mL] | MIC50 (Candida albicans GDH2346; [9]) [µg/mL] | MIC [3, 10] [µg/mL] | MIC [4, 10] [µg/mL] | MIC [5, 10] [µg/mL] | MIC [6, 11] [µg/mL] | MIC50 ([1]; ATCC26759, 48 h) [µg/mL] | MIC50 ([2]; ATCC90286, 48 h) [µg/mL] | MIC50 (Candida albicans GDH2346; GDH2346, 48 h) [µg/mL] | MIC ([3]; 48 h) [µg/mL] | MIC ([4]; 48 h) [µg/mL] | MIC ([5]; 48 h) [µg/mL] | MIC ([6]; ATCC58877, 48 h) [µg/mL]
Cc1cc(-c2nnc(-c3ccc(C4=CCN(C(=N)N)CC4)c(C)c3)n2C)ccc1C1=CCN(C(=N)N)CC1 [Example 24, 4,4′-(4,4′-(4-Methyl-4H-1,2,4-triazole-3,5-diyl)bis(2-methyl-4,1-phenylene)) bis(5,6-dihydropyridine-1(2H)-carboximidamide)] | 6.25 (≈ 12.3 µM) | 50 (≈ 98.1 µM) | 1.56 (≈ 3.06 µM) | 0.78 (≈ 1.53 µM) | 1.56 (≈ 3.06 µM) | 0.78 (≈ 1.53 µM) | 0.78 (≈ 1.53 µM) | – | – | – | – | – | – | –
N=C(N)N1CC=C(c2ccc(-c3nnc(-c4ccc(C5=CCN(C(=N)N)CC5)c(F)c4)o3)cc2F)CC1 [Example 49, 4,4′-(4,4′-(1,3,4-oxadiazole-2,5-diyl)bis(2-fluoro-4,1-phenylene)) bis(5,6-dihydropyridine-1(2H)-carboximidamide)] | 1.56 (≈ 3.09 µM) | 25 (≈ 49.5 µM) | 1.56 (≈ 3.09 µM) | < 0.1 | 0.78 (≈ 1.55 µM) | 3.13 (≈ 6.2 µM) | 3.13 (≈ 6.2 µM) | – | – | – | – | – | – | –
N=C(N)N1CC=C(c2ccc(-c3nnc(-c4ccc(C5=CCN(C(=N)N)CC5)cc4F)o3)cc2)CC1 [Example 50, 4-(4-(5-(4-(1-Carbamimidoyl-1,2,3,6-tetrahydropyridin-4-yl)-2-fluorophenyl)-1,3,4-oxadiazol-2-yl)phenyl)-5,6-dihydropyridine-1(2H)-carboximidamide] | 50 (≈ 103 µM) | 25 (≈ 51.4 µM) | 0.78 (≈ 1.6 µM) | < 0.1 | 0.39 (≈ 0.802 µM) | 0.78 (≈ 1.6 µM) | 1.56 (≈ 3.21 µM) | – | – | – | – | – | – | –
Cc1cc(C2=CCN(C(=N)N)CC2)ccc1-c1nnc(-c2ccc(C3=CCN(C(=N)N)CC3)cc2C)n1C [Example 22, 4,4′-(4,4′-(4-Methyl-4H-1,2,4-triazole-3,5-diyl)bis(3-methyl-4,1-phenylene))bis(5,6-dihydropyridine-1(2H)-carboximidamide)] | 1.56 (≈ 3.06 µM) | 6.25 (≈ 12.3 µM) | 0.16 (≈ 0.314 µM) | 0.78 (≈ 1.53 µM) | 0.39 (≈ 0.765 µM) | 0.78 (≈ 1.53 µM) | 0.2 (≈ 0.392 µM) | – | – | – | – | – | – | –
Cn1nc(-c2ccc(C3=CCN(C(=N)N)CC3)cc2)cc1-c1ccc(C2=CCN(C(=N)N)CC2)cc1 [Example 54, 4,4′-(4,4′-(1-Methyl-1H-pyrazole-3,5-diyl)bis(4,1-phenylene)) bis(5,6-dihydropyridine-1(2H)-carboximidamide)] | 0.39 (≈ 0.811 µM) | 3.13 (≈ 6.51 µM) | 0.5 (≈ 1.04 µM) | < 0.1 | 0.39 (≈ 0.811 µM) | 1.56 (≈ 3.25 µM) | 0.78 (≈ 1.62 µM) | – | – | – | – | – | – | –
Cc1cc(C2=CCN(C(=N)N)CC2)ccc1-n1cc(-c2ccc(C3=CCN(C(=N)N)CC3)cc2)nn1 [Example 34, 4-(4-(1-(4-(1-Carbamimidoyl-1,2,3,6-tetrahydropyridin-4-yl)-2-methylphenyl)-1H-1,2,3-triazol-4-yl)phenyl)-5,6-dihydropyridine-1(2-H)-carboximidamide] | 0.39 (≈ 0.81 µM) | 25 (≈ 51.9 µM) | 0.16 (≈ 0.332 µM) | < 0.1 | 0.2 (≈ 0.415 µM) | 0.2 (≈ 0.415 µM) | 0.39 (≈ 0.81 µM) | – | – | – | – | – | – | –
Cn1c(-c2cc(F)c(C3=CCN(C(=N)N)CC3)cc2F)nnc1-c1cc(F)c(C2=CCN(C(=N)N)CC2)cc1F [Example 20, 4,4′-(4,4′-(4-Methyl-4H-1,2,4-triazole-3,5-diyl)bis(2,5-difluoro-4,1-phenylene))bis(5,6-dihydropyridine-1(2H)-carboximidamide)] | 0.78 (≈ 1.41 µM) | 12.5 (≈ 22.6 µM) | 0.78 (≈ 1.41 µM) | < 0.1 | 0.2 (≈ 0.361 µM) | < 0.1 | 0.2 (≈ 0.361 µM) | – | – | – | – | – | – | –
Cn1c(-c2ccc(C3=CCC(C(=N)N)CC3)cc2F)nnc1-c1ccc(C2=CCC(C(=N)N)CC2)cc1F (centres unmarked) [Example 87, 4-(4-{5-[4-(4-carbamimidoylcyclohex-1-en-1-yl)-2-fluorophenyl]-4-methyl-4H-1,2,4-triazol-3-yl}-3-fluorophenyl)cyclohex-3-ene-1-carboximidamide trifluoroacetate] | – | – | – | – | – | – | – | 0.39 | 3.13 | 0.2 | 0.1 | 0.78 | 0.2 | 0.2
Cc1cc(C2=CCN(C(=N)N)CC2)cc(C)c1-c1nnc(-c2ccc(C3=CCN(C(=N)N)CC3)cc2)o1 [Example 45, 4-(4-(5-(4-(1-Carbamimidoyl-1,2,3,6-tetrahydropyridin-4-yl)-2,6-dimethylphenyl)-1,3,4-oxadiazol-2-yl)phenyl)-5,6-dihydropyridine-1(2H)-carboximidamide] | – | – | 0.39 (≈ 0.785 µM) | – | 0.39 (≈ 0.785 µM) | 0.39 (≈ 0.785 µM) | – | – | – | – | – | – | – | –
Cc1c(C2=CCN(C(=N)N)CC2)ccc(-c2nnc(-c3ccc(C4=CCN(C(=N)N)CC4)cc3)o2)c1C [Example 44, 4-(4-(5-(4-(1-Carbamimidoyl-1,2,3,6-tetrahydropyridin-4-yl)-2,3-dimethylphenyl)-1,3,4-oxadiazol-2-yl)phenyl)-5,6-dihydropyridine-1(2H)-carboximidamide] | – | – | 0.39 (≈ 0.785 µM) | – | 1.56 (≈ 3.14 µM) | 6.25 (≈ 12.6 µM) | – | – | – | – | – | – | – | –
N=C(N)N1CCC(c2ccc(-c3nnc(-c4ccc(C5CCN(C(=N)N)CC5)cc4)o3)cc2)CC1 [Example 52, 4,4′-(4,4′-(1,3,4-Oxadiazole-2,5-diyl)bis(4,1-phenylene)) dipiperidine-1-carboximidamide] | – | – | 4.3 (≈ 9.1 µM) | – | 6.25 (≈ 13.2 µM) | 50 (≈ 106 µM) | – | – | – | – | – | – | – | –
